Consider 13 molecules from ChEMBL document CHEMBL1149440, “Indol-1-yl acetic acids as peroxisome proliferator-activated receptor agonists: design, synthesis, structural biology, and molecular docking studies” (J Med Chem, 2006).

pEC50, pIC50: −log10 of the molar value.

The target in assay [1] is T1, Peroxisome proliferator-activated receptor alpha (Homo sapiens, UniProt Q07869).
T1 sequence (Q07869 whole entry): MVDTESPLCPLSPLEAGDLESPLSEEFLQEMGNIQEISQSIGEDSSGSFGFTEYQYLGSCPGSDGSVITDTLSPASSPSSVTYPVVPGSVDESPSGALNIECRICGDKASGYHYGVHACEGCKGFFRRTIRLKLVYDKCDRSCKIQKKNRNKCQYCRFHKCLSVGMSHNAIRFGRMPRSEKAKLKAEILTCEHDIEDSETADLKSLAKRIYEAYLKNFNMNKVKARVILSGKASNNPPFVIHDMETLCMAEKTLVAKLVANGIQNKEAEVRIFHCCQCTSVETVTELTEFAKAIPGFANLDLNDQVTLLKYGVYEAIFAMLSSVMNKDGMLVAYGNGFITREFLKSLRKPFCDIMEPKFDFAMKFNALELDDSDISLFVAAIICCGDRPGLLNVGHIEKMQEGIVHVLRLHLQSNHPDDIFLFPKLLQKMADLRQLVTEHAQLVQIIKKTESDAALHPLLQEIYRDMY

The target of assay [2] is T1, Peroxisome proliferator-activated receptor alpha. It counts as functional, cell-based, Huh-7.
Assay [3] addresses T2, Peroxisome proliferator-activated receptor delta (Homo sapiens, UniProt Q03181).
T2 sequence (Q03181 whole entry): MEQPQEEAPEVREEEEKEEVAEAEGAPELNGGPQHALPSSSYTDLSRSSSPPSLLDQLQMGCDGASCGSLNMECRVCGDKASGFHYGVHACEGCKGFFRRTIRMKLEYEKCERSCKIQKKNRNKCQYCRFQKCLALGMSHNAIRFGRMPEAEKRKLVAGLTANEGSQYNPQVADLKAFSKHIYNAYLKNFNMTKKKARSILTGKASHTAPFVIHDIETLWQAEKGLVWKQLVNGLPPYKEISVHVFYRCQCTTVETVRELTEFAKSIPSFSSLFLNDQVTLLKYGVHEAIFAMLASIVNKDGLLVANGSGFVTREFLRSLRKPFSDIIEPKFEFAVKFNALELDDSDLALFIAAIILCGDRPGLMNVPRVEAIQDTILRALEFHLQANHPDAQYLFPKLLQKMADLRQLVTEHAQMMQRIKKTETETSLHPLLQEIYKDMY
It counts as functional, cell-based, Huh-7.

Assay [4] has as its target T2, Peroxisome proliferator-activated receptor delta.

Consider `CCCc1c(OCCCOc2ccc3c(ccn3CC(=O)O)c2)ccc2c(C(F)(F)F)noc12`, for which, in assay [1], the pIC50 is 6.30.
For `O=C(O)Cn1ccc2c(OCCCOc3ccc(C(=O)c4ccc(F)cc4)cc3)cccc21`, the pEC50 in assay [2] and in assay [3] was under 5.00 throughout. The pIC50 in assay [4] is under 5.00; in assay [1], 5.99.
On to `CCCc1c(OCCCOc2cccc3c2ccn3CC(=O)O)ccc2cc(C(=O)c3ccccc3)ccc12`, for which the pEC50 was 7.72 in assay [2] and under 5.00 in assay [3]. Also, the values for the pIC50 in assay [4] and in assay [1] were 5.27 and 6.24, respectively.
For `O=C(O)Cn1ccc2ccc(OCCCOc3ccc(C(=O)c4ccc(F)cc4)cc3)cc21`, in that order: 6.12, 5.36, 5.50 and 6.94.
For `CCCc1cc(C(=O)c2ccc(F)cc2)ccc1OCCCOc1cccc2c1ccn2CC(=O)O`, in that order: 6.11, 5.40, 5.49 and 6.38.
In assay [2], `CCCc1c(OCCCOc2ccc3c(ccn3CC(=O)O)c2)ccc2cc(C(=O)c3ccccc3)ccc12` showed a pEC50 of 8.10. The molecule also showed a pIC50 in assay [1] of 6.95.
With `CCCc1cc(C(=O)c2ccc(F)cc2)ccc1OCCCOc1ccc2ccn(CC(=O)O)c2c1`, the pEC50 in assay [2] was under 5.00; in assay [3], 5.28. Further, the figures for the pIC50 in assay [4] and in assay [1] were 5.12 and 5.98, respectively.
For `O=C(O)Cn1ccc2cc(OCCCOc3ccc(C(=O)c4ccc(F)cc4)cc3)ccc21` the same measures were under 5.00, under 5.00, under 5.00 and under 5.00.
For `CCCc1c(OCCCOc2ccc3ccn(CC(=O)O)c3c2)ccc2cc(C(=O)c3ccccc3)ccc12` the same measures were 5.61, 5.31, 5.62 and 5.35.
For `O=C(O)Cn1ccc2ccc(OCCCOc3ccc4cc(C(=O)c5ccccc5)ccc4c3)cc21`, in that order: under 5.00, under 5.00, 5.59 and 5.35.
As for `O=C(O)Cn1ccc2cc(OCCCOc3ccc4cc(C(=O)c5ccccc5)ccc4c3)ccc21`, the pEC50 in assay [2] is 6.57; in assay [3], 5.25. Further, the pIC50 is 5.35 in assay [4] and 6.32 in assay [1].
For `O=C(O)Cn1ccc2c(OCCCOc3ccc4cc(C(=O)c5ccccc5)ccc4c3)cccc21` the same measures were under 5.00, under 5.00, under 5.00 and 5.97.
As for `CCCc1cc(C(=O)c2ccc(F)cc2)ccc1OCCCOc1ccc2c(ccn2CC(=O)O)c1`, the negative-log EC50 (pEC50) in assay [2] was 7.30. For the same molecule, in assay [1], the pIC50 is 6.33.
